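These data come from cells grown in 96-well plates and exposed to compound for 48 hours at five concentrations. GI50 is the concentration that inhibits growth by half.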 Active and inactive are the calls of the source. Cut-off read from the data, not from the text of the source: active = GI50 up to about 1.1 µM and inactive = higher.
Assays:
Test in all cases: inhibition of tumour cell growth, NCI panel, 48 h
HCC 2998 = tested on: HCC 2998
MCF7 = tested on: MCF7
SW-620 = tested on: SW-620
NCI/ADR-RES = tested on: NCI/ADR-RES
A549 = tested on: A549
HT-29 = tested on: HT-29
TK-10 = tested on: TK-10
HOP-62 = tested on: HOP-62
HCT-15 = tested on: HCT-15
IGROV-1 = tested on: IGROV-1
RPMI-8226 = tested on: RPMI-8226
ACHN = tested on: ACHN
SNB-19 = tested on: SNB-19
MDA-MB-231 = tested on: MDA-MB-231
SK-MEL-5 = tested on: SK-MEL-5
SF-268 = tested on: SF-268
SF-295 = tested on: SF-295
K562 = tested on: K562

Compound	GI50 (HCC 2998)	GI50 (MCF7)	GI50 (SW-620)	GI50 (NCI/ADR-RES)	GI50 (A549)	GI50 (HT-29)	GI50 (TK-10)	GI50 (HOP-62)	GI50 (HCT-15) [µM]	GI50 (IGROV-1)	GI50 (RPMI-8226)	GI50 (ACHN)	GI50 (SNB-19)	GI50 (MDA-MB-231)	GI50 (SK-MEL-5)	GI50 (SF-268)	GI50 (SF-295)	GI50 (K562)
Oc1cc(/C=C/c2ccccc2)nc2cc3c(cc12)OCO3	2.9 µM (inactive)	4.85 µM (inactive)	6.37 µM (inactive)	2.04 µM (inactive)	4.95 µM (inactive)	2.2 µM (inactive)	10.7 µM (inactive)	3.47 µM (inactive)	3.01	4.56 µM (inactive)	0.724 µM (active)	10.9 µM (inactive)	3.78 µM (inactive)	2.79 µM (inactive)				
CCNc1ccc2c(c1)C(=O)N(OS(C)(=O)=O)C2=O	> 100 µM (inactive)	33.6 µM (inactive)	37.6 µM (inactive)	> 100 µM (inactive)	> 100 µM (inactive)	> 100 µM (inactive)	> 100 µM (inactive)	> 100 µM (inactive)	36.1		31.9 µM (inactive)	37.7 µM (inactive)	> 100 µM (inactive)	> 100 µM (inactive)	41.2 µM (inactive)	> 100 µM (inactive)	> 100 µM (inactive)	
O=C1OCCC12CN(Cc1ccccc1)N=N2 (stereo not drawn)	> 100 µM (inactive)	> 100 µM (inactive)	> 100 µM (inactive)	> 100 µM (inactive)	> 100 µM (inactive)	> 100 µM (inactive)	> 100 µM (inactive)	> 100 µM (inactive)	> 100		> 100 µM (inactive)	29.9 µM (inactive)	> 100 µM (inactive)	> 100 µM (inactive)	> 100 µM (inactive)	> 100 µM (inactive)	> 100 µM (inactive)	> 100 µM (inactive)
CS(=O)(=O)N1CC(CCl)c2ccc([N+](=O)[O-])cc21 (stereo not drawn)	> 100 µM (inactive)	> 100 µM (inactive)	> 100 µM (inactive)	> 100 µM (inactive)	> 100 µM (inactive)	> 100 µM (inactive)	> 100 µM (inactive)	> 100 µM (inactive)	> 100	> 100 µM (inactive)	> 100 µM (inactive)	> 100 µM (inactive)	> 100 µM (inactive)	> 100 µM (inactive)	> 100 µM (inactive)	> 100 µM (inactive)	> 100 µM (inactive)	> 100 µM (inactive)
COc1ccc(-c2c(C#N)c(-c3ccc(C)cc3)n(NS(=O)(=O)c3ccccc3)c(=O)c2C#N)cc1	45.8 µM (inactive)	28.9 µM (inactive)	46.7 µM (inactive)	41.5 µM (inactive)	45.9 µM (inactive)	47.5 µM (inactive)	79.8 µM (inactive)	51.3 µM (inactive)	39.3	35.5 µM (inactive)	13.3 µM (inactive)	45 µM (inactive)	58.5 µM (inactive)	> 100 µM (inactive)	19.5 µM (inactive)	80.4 µM (inactive)	32.7 µM (inactive)	60.4 µM (inactive)
CC1CNC(NS(=O)(=O)c2cc(C(=O)Nc3ccccc3)c(Cl)cc2S)=NN1 (stereo not drawn)	46.1 µM (inactive)	36.5 µM (inactive)	40.6 µM (inactive)	> 100 µM (inactive)	33.7 µM (inactive)	38.8 µM (inactive)	> 100 µM (inactive)	43.9 µM (inactive)	33.8	6.24 µM (inactive)	31.4 µM (inactive)	69 µM (inactive)	57 µM (inactive)	> 100 µM (inactive)	23.2 µM (inactive)	26.1 µM (inactive)	38.5 µM (inactive)	35.2 µM (inactive)
CC(=O)OCC1OC(OCCCOP(=O)(OCCC#N)OCC2OC(n3cnc4c(N)ncnc43)C(OC(=O)c3ccccc3)C2OC(=O)c2ccccc2)C(OC(C)=O)C(OC(C)=O)C1OC(C)=O (stereo not drawn)	> 100 µM (inactive)	> 100 µM (inactive)	> 100 µM (inactive)	> 100 µM (inactive)	> 100 µM (inactive)	> 100 µM (inactive)	> 100 µM (inactive)	> 100 µM (inactive)	> 100		> 64.1 µM (inactive)	> 100 µM (inactive)	> 100 µM (inactive)	> 100 µM (inactive)	> 100 µM (inactive)	> 100 µM (inactive)	> 100 µM (inactive)	> 100 µM (inactive)
NS(=O)(=O)c1nnc(NS(=O)(=O)c2ccc(Cl)cc2)s1	> 100 µM (inactive)	> 100 µM (inactive)	> 100 µM (inactive)	> 100 µM (inactive)	> 100 µM (inactive)	> 100 µM (inactive)	> 100 µM (inactive)	> 100 µM (inactive)	> 100		> 100 µM (inactive)	> 100 µM (inactive)	> 100 µM (inactive)	> 100 µM (inactive)	> 100 µM (inactive)	> 100 µM (inactive)	> 100 µM (inactive)	> 100 µM (inactive)
CN(C)CCCNC(=O)c1cc(NC(=O)c2cc(NC(=O)[C@H]3C[C@@H]3C(=O)Nc3cc(C(=O)Nc4cc(C(=O)NCCCN(C)C)n(C)c4)n(C)c3)cn2C)cn1C	> 100 µM (inactive)	> 100 µM (inactive)	> 100 µM (inactive)	> 100 µM (inactive)	> 100 µM (inactive)	> 100 µM (inactive)	> 10 µM (inactive)	> 100 µM (inactive)	> 100	> 100 µM (inactive)	> 100 µM (inactive)	> 100 µM (inactive)	> 100 µM (inactive)	> 100 µM (inactive)	> 100 µM (inactive)	> 100 µM (inactive)	> 100 µM (inactive)	> 100 µM (inactive)
CC(O)CC(=O)CO[C@H]1[C@H](O)[C@@H](O)[C@@H](O)[C@@H]2NC(=O)c3c(cc4c(c3O)OCO4)[C@H]21 (stereo partly drawn)	0.0181 µM (active)	0.0194 µM (active)	0.109 µM (active)	1.29 µM (inactive)	0.042 µM (active)	0.0258 µM (active)	0.0353 µM (active)	0.0289 µM (active)	0.256	< 0.0207 µM (active)	0.0226 µM (active)	0.0391 µM (active)	< 0.0156 µM (active)	0.054 µM (active)	0.0137 µM (active)	0.0222 µM (active)	0.0299 µM (active)	0.0392 µM (active)
O=C1C=C(c2ccccc2)O/C1=C\C(=O)c1ccc(Cl)cc1	28.3 µM (inactive)	17.3 µM (inactive)	1.73 µM (inactive)	23.2 µM (inactive)		3.58 µM (inactive)	20.1 µM (inactive)	> 100 µM (inactive)	17.5	17.1 µM (inactive)	16.7 µM (inactive)	16.1 µM (inactive)	> 100 µM (inactive)	18.1 µM (inactive)	21.5 µM (inactive)	20 µM (inactive)		22.2 µM (inactive)
Clc1ccc(-c2cn3c(nc4ccccc43)c(/C=C/c3ccco3)n2)cc1	22.2 µM (inactive)	7.85 µM (inactive)	36.8 µM (inactive)	42.1 µM (inactive)	46.6 µM (inactive)	62.8 µM (inactive)	24 µM (inactive)	42.5 µM (inactive)	57.5	30.5 µM (inactive)	16.1 µM (inactive)	37.9 µM (inactive)	41.4 µM (inactive)	28.4 µM (inactive)	33.9 µM (inactive)	27.7 µM (inactive)		29.8 µM (inactive)
COC1OC2COC1(OCc1ccccc1)C1OC(C)(C)OC21 (stereo not drawn)	> 100 µM (inactive)	> 100 µM (inactive)	> 100 µM (inactive)	> 100 µM (inactive)	> 100 µM (inactive)	> 100 µM (inactive)	> 100 µM (inactive)	> 100 µM (inactive)	> 100	> 100 µM (inactive)	> 100 µM (inactive)	> 100 µM (inactive)	> 100 µM (inactive)	> 100 µM (inactive)	> 100 µM (inactive)	> 100 µM (inactive)	> 100 µM (inactive)	> 100 µM (inactive)
CCCCn1c2c(n(CCCC)c1=[Se])-c1c(n(CCCC)c(=[Se])n1CCCC)S[Se][Se]S2	30.4 µM (inactive)	25.4 µM (inactive)	6.01 µM (inactive)	19.5 µM (inactive)	20.7 µM (inactive)	26.5 µM (inactive)	5.4 µM (inactive)	13.7 µM (inactive)	13.7	7.1 µM (inactive)	16.8 µM (inactive)	12 µM (inactive)	17 µM (inactive)	14.5 µM (inactive)	16.6 µM (inactive)	32.7 µM (inactive)	4.55 µM (inactive)	9.84 µM (inactive)
CCN(CC)CCCNc1nc2ccccc2[n+]([O-])n1	> 100 µM (inactive)	50.9 µM (inactive)	> 100 µM (inactive)	> 100 µM (inactive)	> 100 µM (inactive)	> 100 µM (inactive)	> 100 µM (inactive)		> 100	> 100 µM (inactive)	> 100 µM (inactive)	> 100 µM (inactive)	> 100 µM (inactive)	> 100 µM (inactive)	> 100 µM (inactive)	> 100 µM (inactive)	> 100 µM (inactive)	> 100 µM (inactive)
C[n+]1c(-c2ccc(/C=N/NC(=O)C(=O)N/N=C/c3ccc(-c4cn5ccccc5[n+]4C)cc3)cc2)cn2ccccc21	> 100 µM (inactive)	> 100 µM (inactive)	> 100 µM (inactive)	> 100 µM (inactive)	> 100 µM (inactive)	> 100 µM (inactive)	56.6 µM (inactive)	> 100 µM (inactive)	> 100	> 100 µM (inactive)	> 100 µM (inactive)	> 100 µM (inactive)	> 100 µM (inactive)	> 100 µM (inactive)	91 µM (inactive)			> 100 µM (inactive)

From ChEMBL document CHEMBL1201862, “PubChem BioAssay data set” (2004)
